# Read-outs that look alike come from different tables or passages of the source.
# Key:
# EBOV-GFP [1] = test: microbe, parasite or virus in culture; format: cell-based, Ebola virus; conditions: for IC50: read-out: IC50 against EBOV-GFP
# EBOV-GFP [2] = format: cell-based, Ebola virus
# ISRE promoter [3] = format: cell-based, mouse
# ISRE promoter [4] = format: cell-based, human
# VSV-GFP = test: microbe, parasite or virus in culture; format: cell-based, vesicular stomatitis virus; conditions: read-out: IC50 against VSV-GFP
# EBOV polymerase complex = format: cell-based, Ebola virus
# ISG54, ISG56, and MX1 = format: cell-based, human
# ZIKV = test: microbe, parasite or virus in culture; format: cell-based, Zika virus; conditions: read-out: IC50 against ZIKV
Structure (SMILES),Effect on cell viability (A549 cells),Activity against EBOV-GFP (EBOV-GFP [1]),Reduction of viral titers in cell culture supernatants (EBOV-GFP [2]) [fold],ISRE reporter induction in MEFs (ISRE promoter [3]),Activation of ISRE promoter (ISRE promoter [4]),Effect on cell viability (Vero cells),IC50 (EBOV-GFP [1]) [nM],IC50 (VSV-GFP) [nM],Activity in EBOV MG assay (EBOV polymerase complex),"ISG54 and ISG56 mRNA response (ISG54, ISG56, and MX1)",IC50 (ZIKV) [nM],"IC50 (EBOV-GFP [1]; Zaire ebolavirus, HeLa, 24 h) [nM]","IC50 (VSV-GFP; Vesicular stomatitis virus, Vero, 21 h) [nM]",IC50 (EBOV polymerase complex; read-out: IC50 in EBOV MG assay) [nM],"IC50 (ZIKV; Zika virus, Vero, 48 h) [nM]",Inhibition of EBOV replication (EBOV-GFP [2])
"O=C(N[C@@H]1CCCc2c1[nH]c1ccc(Cl)cc21)c1ccccn1 [GSK983, reference compound]",no effect on cell viability,"highly active, even at the lowest concentration tested",> 200,–,–,–,–,–,–,–,–,–,–,–,–,–
O=C(NC1CCCc2c1[nH]c1ccc(Cl)cc21)c1ccccn1 (stereo not drawn) [SW835],no effect on cell viability,–,> 200,not affected in IFNAR knockout cells,activated the ISRE promoter,no significant effect on cell viability,~20,400,potent activity,responded,40,–,–,–,–,–
"Cc1c(-c2ccc(-c3ccccc3F)cc2)nc2ccc(F)cc2c1C(=O)O [brequinar, reference compound]",–,–,–,not statistically significant compared to DMSO-treated cells,activated the ISRE promoter,–,–,–,–,responded,–,100,500,100,300,potently inhibited virus growth
O=C(NC1CCCc2c1[nH]c1ccc(Cl)cc21)c1ccccn1 (stereo not drawn) [SW308],–,–,–,–,–,–,1700,–,less active,–,–,–,–,–,–,unable to inhibit EBOV virus replication efficiently
